According to patent US20250019701A1, “TREATMENT FOR INFLAMMATORY DISEASE” (priority 2021, published 2025):

B1: TSPO (the 18 kDa translocator protein) (other)
chain: APPWVPAMGFTLAPSLGCFVGSRFVHGEGLRWYAGLQKPSWHPPHWVLGPVWGTLYSAMGYGSYLVWKELGGFTEKAVVPLGLYTGQLALNWAWPPIFFGARQMGWALVDLLLVSGAAAATTVAWYQVSPLAARLLYPYLAWLAFTTTLNYCVWRDNHGWRGGRRLPE
notes: also called peripheral benzodiazepine receptor

Columns and labels:
THP-1 cells [1] = type: cell-based, human
A549 cells [2] = type: cell-based, human
THP-1 cells [3] = type: cell-based, human; details: 48 hours ligand treatment
A549 cells [4] = system: A549 cells
ASC = type: cell-based, human; details: THP-1; after ORF8 transfection; 30 uM Etifoxine or 200 nM PK11195 for 24 hours
Vero cells = details: etifoxine 30 μM, counting adherent cells
[5] = biological target: T1, NLRP3 (NLR family pyrin domain containing 3) (human, UniProt Q96P20 1-1036); test: co-immunoprecipitation from THP-1 cells, TSPO as bait, western blot
T1 construct: Endogenous protein in the THP-1 cell lysate; also called NRLP3
T1 sequence (Q96P20 whole entry, the tested form may be a part): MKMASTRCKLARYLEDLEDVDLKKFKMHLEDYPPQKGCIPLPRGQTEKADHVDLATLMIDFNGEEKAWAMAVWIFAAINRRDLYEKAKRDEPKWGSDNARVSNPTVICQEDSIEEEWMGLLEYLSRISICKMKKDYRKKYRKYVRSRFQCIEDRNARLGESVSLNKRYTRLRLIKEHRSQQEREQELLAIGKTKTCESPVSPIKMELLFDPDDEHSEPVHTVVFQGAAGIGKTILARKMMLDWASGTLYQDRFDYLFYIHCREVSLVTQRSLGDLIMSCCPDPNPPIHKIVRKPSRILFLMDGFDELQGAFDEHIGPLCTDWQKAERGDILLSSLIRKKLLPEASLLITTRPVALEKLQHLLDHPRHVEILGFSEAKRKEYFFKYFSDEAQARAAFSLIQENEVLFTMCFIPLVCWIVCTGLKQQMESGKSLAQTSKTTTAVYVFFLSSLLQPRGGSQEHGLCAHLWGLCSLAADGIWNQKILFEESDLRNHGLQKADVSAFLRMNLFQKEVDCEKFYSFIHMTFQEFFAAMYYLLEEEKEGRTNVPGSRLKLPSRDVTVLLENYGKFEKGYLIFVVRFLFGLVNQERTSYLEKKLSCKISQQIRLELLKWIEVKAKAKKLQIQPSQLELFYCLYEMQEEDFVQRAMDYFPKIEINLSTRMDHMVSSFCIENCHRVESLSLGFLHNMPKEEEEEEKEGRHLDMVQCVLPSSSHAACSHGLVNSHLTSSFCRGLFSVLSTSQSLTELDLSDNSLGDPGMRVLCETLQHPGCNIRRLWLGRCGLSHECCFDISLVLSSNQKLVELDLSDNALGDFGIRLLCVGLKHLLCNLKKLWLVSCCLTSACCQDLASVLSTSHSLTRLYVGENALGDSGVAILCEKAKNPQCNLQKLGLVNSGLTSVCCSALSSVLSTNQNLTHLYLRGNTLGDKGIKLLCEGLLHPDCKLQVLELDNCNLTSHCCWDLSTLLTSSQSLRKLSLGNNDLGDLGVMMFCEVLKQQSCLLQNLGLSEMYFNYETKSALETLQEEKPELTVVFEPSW

Molecule | cell death by LDH release (qualitative) (THP-1 cells [1]) | cell death by LDH release (qualitative) (A549 cells [2]) | PI cell death (qualitative) (THP-1 cells [3]) | PI cell death, ORF3a induced cytotoxicity (qualitative) (A549 cells [4]) | ASC protein levels co-immunoprecipitated with TSPO (qualitative) (ASC) | reduction of cell death (Vero cells) | binding result [5]
CCCCCCN(CCCCCC)C(=O)Cc1c(-c2ccc(F)cc2)[nH]c2ccccc12 [FGIN, FGIN 1-27] | confer cytoprotection | confer cytoprotection | decrease | significant decrease |  |  | 
CCC(C)N(C)C(=O)c1cc2ccccc2c(-c2ccccc2Cl)n1 (stereo not shown) [PK11195] | confer cytoprotection | confer cytoprotection | decrease | significant decrease | decrease in protein levels |  | 
CCN(Cc1ccccc1)C(=O)Cn1c(=O)n(C)c2cnc(-c3ccccc3)nc21 [XBD173] | confer cytoprotection | confer cytoprotection | decrease | significant decrease |  |  | 
CCNC1=Nc2ccc(Cl)cc2C(C)(c2ccccc2)O1 (stereo not shown) [etifoxine] | confer cytoprotection | confer cytoprotection |  | significant decrease | decrease in protein levels | approximately 50% | 
B1 |  |  |  |  |  |  | no binding
